Data reported in US20230085307A1, “PYRIDAZINONE COMPOUND AND HERBICIDE” (NISSAN CHEMICAL CORPORATION, priority 2019, published 2023).

Experiments:
[1] = test system: redroot pigweed; assay: Test Example 4: herbicidal effect by soil treatment (Table 19, symbol N); type: in vivo, redroot pigweed (Amaranthus retroflexus); details: amount of applied herbicide 320 g/ha
Outline: (§1)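 In this soil treatment, the formulated compound reached the seeds only through the soil: seeds were buried about 1.5 cm deep in sterilized diluvial soil, then the diluted emulsion was sprayed over the surface. After three weeks at 25° C. to 30° C. in a greenhouse, effects were graded on criteria from an earlier test.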

[2] = test system: barnyard grass; assay: Test Example 5: herbicidal effect by foliage application, plastic box (Table 20, symbol H); type: in vivo, barnyard grass (Echinochloa crus-galli); details: foliage application; for H: barnyard grass, herbicidal effect (criteria 0-5): AAH 320 g/ha, evaluated three weeks after application
Outline: (§2)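 Plants were sown into sterilized diluvial soil under about 1.5 cm cover and kept in a greenhouse at 25° C. to 30° C. Fourteen days on, foliage received an even spray of the diluted emulsion. Herbicidal or crop effect was judged three weeks afterwards.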

[3] = test system: redroot pigweed; assay: Test Example 5: herbicidal effect by foliage application, plastic box (Table 20, symbol N); type: in vivo, redroot pigweed (Amaranthus retroflexus); details: foliage application; for N: redroot pigweed, herbicidal effect (criteria 0-5): AAH 320 g/ha, evaluated three weeks after application
Outline: as §2

[4] = test system: Japanese bulrush; assay: Test Example 1: herbicidal activity, application before weed generation under submerged conditions (Table 16, symbol B); type: in vivo, Japanese bulrush (Schoenoplectus juncoides); details: 320 g/ha applied herbicide
Outline: (§3)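 Alluvial soil was flooded to 4 cm depth, weed seeds were sown mixed and 2.5-leaf rice seedlings were transplanted. On sowing day, the compound's emulsion, diluted in water to a set dose, was applied to the water surface. Plants grew at 25–30 °C and were scored 0–5 after three weeks.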

[5] = test system: wild oat; assay: Test Example 4: herbicidal effect by soil treatment (Table 19, symbol I); type: in vivo, wild oat (Avena fatua); details: amount of applied herbicide 320 g/ha
Outline: as §1

[6] = test system: barnyard grass; assay: Test Example 4: herbicidal effect by soil treatment (Table 19, symbol H); type: in vivo, barnyard grass (Echinochloa crus-galli); details: amount of applied herbicide 320 g/ha
Outline: as §1

[7] = test system: rice flat sedge; assay: Test Example 3: herbicidal effect by foliage application, Wagner pot (Table 18, symbol E); type: in vivo, rice flat sedge (Cyperus iria); details: for herbicidal effect on E: rice flat sedge: amount of applied herbicide 320 g/ha
Outline: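 Plants were sown in alluvial soil held under 0.1–0.5 cm standing water and grown 14 days in a greenhouse at 25–30 °C. An emulsifiable formulation, water-diluted to the set dose, was then sprayed onto the foliage, and effects were scored three weeks later using previously defined criteria.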

[8] = test system: green foxtail; assay: Test Example 4: herbicidal effect by soil treatment (Table 19, symbol G); type: in vivo, green foxtail (Setaria viridis); details: amount of applied herbicide 320 g/ha
Outline: as §1

[9] = test system: green foxtail; assay: Test Example 5: herbicidal effect by foliage application, plastic box (Table 20, symbol G); type: in vivo, green foxtail (Setaria viridis); details: foliage application; for G: green foxtail, herbicidal effect (criteria 0-5): AAH 320 g/ha, evaluated three weeks after application
Outline: as §2

[10] = test system: oval-leafed pondweed; assay: Test Example 2: herbicidal activity, application during weed generation under submerged conditions (Table 17, symbol C); type: in vivo, oval-leafed pondweed (Monochoria vaginalis); details: AAH 320 g/ha; application during weed generation, submerged conditions
Outline: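 3-wk visual-criteria score after one water-surface dose. Emulsion formulation, water-diluted to set rate; applied at 1–2 leaf stage; alluvial soil, 4 cm standing water; seeds co-sown; greenhouse 25–30° C.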

[11] = test system: velvetleaf; assay: Test Example 5: herbicidal effect by foliage application, plastic box (Table 20, symbol M); type: in vivo, velvetleaf (Abutilon theophrasti); details: foliage application; for M: velvetleaf, herbicidal effect (criteria 0-5): AAH 320 g/ha, evaluated three weeks after application
Outline: as §2

[12] = test system: chickweed; assay: Test Example 5: herbicidal effect by foliage application, plastic box (Table 20, symbol P); type: in vivo, common chickweed (Stellaria media); details: foliage application; for P: chickweed, herbicidal effect (criteria 0-5): AAH 320 g/ha, evaluated three weeks after application
Outline: as §2

[13] = test system: wild oat; assay: Test Example 5: herbicidal effect by foliage application, plastic box (Table 20, symbol I); type: in vivo, wild oat (Avena fatua); details: foliage application; for I: wild oat, herbicidal effect (criteria 0-5): AAH 320 g/ha, evaluated three weeks after application
Outline: as §2

[14] = test system: oval-leafed pondweed; assay: Test Example 1: herbicidal activity, application before weed generation under submerged conditions (Table 16, symbol C); type: in vivo, oval-leafed pondweed (Monochoria vaginalis); details: 320 g/ha applied herbicide
Outline: as §3

[15] = test system: blackgrass; assay: Test Example 5: herbicidal effect by foliage application, plastic box (Table 20, symbol J); type: in vivo, blackgrass (Alopecurus myosuroides); details: foliage application; for J: blackgrass, herbicidal effect (criteria 0-5): AAH 320 g/ha, evaluated three weeks after application
Outline: as §2

[16] = test system: chickweed; assay: Test Example 4: herbicidal effect by soil treatment (Table 19, symbol P); type: in vivo, common chickweed (Stellaria media); details: amount of applied herbicide 320 g/ha
Outline: as §1

[17] = 320 g/ha, three weeks after application

Structure (SMILES) | herbicidal effect on N: redroot pigweed [1] | H: barnyard grass, herbicidal effect (criteria 0-5) [2] | N: redroot pigweed, herbicidal effect (criteria 0-5) [3] | Herbicidal effect on B: Japanese bulrush (grade 0-5) [4] | herbicidal effect on I: wild oat [5] | herbicidal effect on H: barnyard grass [6] | herbicidal effect on E: rice flat sedge [7] | herbicidal effect on G: green foxtail [8] | G: green foxtail, herbicidal effect (criteria 0-5) [9] | herbicidal effect rating, C: oval-leafed pondweed [10] | M: velvetleaf, herbicidal effect (criteria 0-5) [11] | P: chickweed, herbicidal effect (criteria 0-5) [12] | I: wild oat, herbicidal effect (criteria 0-5) [13] | Herbicidal effect on C: oval-leafed pondweed (grade 0-5) [14] | J: blackgrass, herbicidal effect (criteria 0-5) [15] | herbicidal effect on P: chickweed [16] | also measured
Cc1nn(C)c(=O)c(-c2c(-c3ccc(C#N)cc3)sc3ccc(F)cc23)c1O [2-340] | 5 (Herbicidal rate of 90% or more (almost completely withered)) | 5 (Herbicidal rate of 90% or more (almost completely withered)) | 5 (Herbicidal rate of 90% or more (almost completely withered)) | 5 (Herbicidal rate of 90% or more (almost completely withered)) | 3 (Herbicidal rate of 40% or more and less than 70%) | 5 (Herbicidal rate of 90% or more (almost completely withered)) | 5 (Herbicidal rate of 90% or more (almost completely withered)) | 5 (Herbicidal rate of 90% or more (almost completely withered)) | 5 (Herbicidal rate of 90% or more (almost completely withered)) | 3 (Herbicidal rate of 40% or more and less than 70%) | 5 (Herbicidal rate of 90% or more (almost completely withered)) | 5 (Herbicidal rate of 90% or more (almost completely withered)) | 5 (Herbicidal rate of 90% or more (almost completely withered)) | 4 (Herbicidal rate of 70% or more and less than 90%) | 5 (Herbicidal rate of 90% or more (almost completely withered)) | 5 (Herbicidal rate of 90% or more (almost completely withered)) | 
C=CCOC(=O)Oc1c(C)nn(C)c(=O)c1-c1c(-c2ccc(OC(F)F)cc2)sc2ccc(F)cc12 [2-294] | 5 (Herbicidal rate of 90% or more (almost completely withered)) | 5 (Herbicidal rate of 90% or more (almost completely withered)) | 5 (Herbicidal rate of 90% or more (almost completely withered)) | 5 (Herbicidal rate of 90% or more (almost completely withered)) | 1 (Herbicidal rate of 5% or more and less than 20%) | 5 (Herbicidal rate of 90% or more (almost completely withered)) | 5 (Herbicidal rate of 90% or more (almost completely withered)) | 5 (Herbicidal rate of 90% or more (almost completely withered)) | 5 (Herbicidal rate of 90% or more (almost completely withered)) | 3 (Herbicidal rate of 40% or more and less than 70%) | 5 (Herbicidal rate of 90% or more (almost completely withered)) | 5 (Herbicidal rate of 90% or more (almost completely withered)) | 3 (Herbicidal rate of 40% or more and less than 70%) | 4 (Herbicidal rate of 70% or more and less than 90%) | 4 (Herbicidal rate of 70% or more and less than 90%) | 5 (Herbicidal rate of 90% or more (almost completely withered)) | 
COc1ccc(-c2sc3ccccc3c2-c2c(O)c(C)nn(C)c2=O)cc1OC [1-072] |  |  |  | 3 (Herbicidal rate of 40% or more and less than 70%) |  |  |  |  |  | 5 (Herbicidal rate of 90% or more (almost completely withered)) |  |  |  | 0 (Herbicidal rate of 5% or less (almost no effect)) |  |  | herbicidal effect rating, N: redroot pigweed [1]: 5 (Herbicidal rate of 90% or more (almost completely withered)); herbicidal effect grade, H: barnyard grass [2, 17]: 5 (Herbicidal rate of 90% or more (almost completely withered)); herbicidal effect grade, N: redroot pigweed [3, 17]: 5 (Herbicidal rate of 90% or more (almost completely withered)); herbicidal effect rating, I: wild oat [5]: 2 (Herbicidal rate of 20% or more and less than 40%); herbicidal effect rating, H: barnyard grass [6]: 5 (Herbicidal rate of 90% or more (almost completely withered)); herbicidal effect on E (rice flat sedge), rating 0-5 ([7]; 320 g/ha): 5 (Herbicidal rate of 90% or more (almost completely withered)); herbicidal effect rating, G: green foxtail [8]: 5 (Herbicidal rate of 90% or more (almost completely withered)); herbicidal effect grade, G: green foxtail [9, 17]: 5 (Herbicidal rate of 90% or more (almost completely withered)); herbicidal effect grade, M: velvetleaf [11, 17]: 5 (Herbicidal rate of 90% or more (almost completely withered)); herbicidal effect grade, P: chickweed [12, 17]: 5 (Herbicidal rate of 90% or more (almost completely withered)); herbicidal effect grade, I: wild oat [13, 17]: 4 (Herbicidal rate of 70% or more and less than 90%); herbicidal effect grade, J: blackgrass [15, 17]: 3 (Herbicidal rate of 40% or more and less than 70%); herbicidal effect rating, P: chickweed [16]: 4 (Herbicidal rate of 70% or more and less than 90%)
CCCC(=O)Oc1c(C)nn(C)c(=O)c1-c1c(-c2ccc(F)c(F)c2)sc2ccc(F)cc12 [2-345] | 5 (Herbicidal rate of 90% or more (almost completely withered)) | 5 (Herbicidal rate of 90% or more (almost completely withered)) | 5 (Herbicidal rate of 90% or more (almost completely withered)) | 4 (Herbicidal rate of 70% or more and less than 90%) | 1 (Herbicidal rate of 5% or more and less than 20%) | 4 (Herbicidal rate of 70% or more and less than 90%) | 5 (Herbicidal rate of 90% or more (almost completely withered)) | 5 (Herbicidal rate of 90% or more (almost completely withered)) | 5 (Herbicidal rate of 90% or more (almost completely withered)) | 4 (Herbicidal rate of 70% or more and less than 90%) | 5 (Herbicidal rate of 90% or more (almost completely withered)) | 5 (Herbicidal rate of 90% or more (almost completely withered)) | 3 (Herbicidal rate of 40% or more and less than 70%) | 3 (Herbicidal rate of 40% or more and less than 70%) | 0 (Herbicidal rate of 5% or less (almost no effect)) | 3 (Herbicidal rate of 40% or more and less than 70%) | 
Cc1nn(C)c(=O)c(-c2c(-c3ccc(OC(F)F)cc3)sc3ccc(F)cc23)c1OC(=O)COc1ccccc1 [2-284] | 5 (Herbicidal rate of 90% or more (almost completely withered)) | 5 (Herbicidal rate of 90% or more (almost completely withered)) | 5 (Herbicidal rate of 90% or more (almost completely withered)) | 3 (Herbicidal rate of 40% or more and less than 70%) | 3 (Herbicidal rate of 40% or more and less than 70%) | 5 (Herbicidal rate of 90% or more (almost completely withered)) | 5 (Herbicidal rate of 90% or more (almost completely withered)) | 5 (Herbicidal rate of 90% or more (almost completely withered)) | 5 (Herbicidal rate of 90% or more (almost completely withered)) | 3 (Herbicidal rate of 40% or more and less than 70%) | 5 (Herbicidal rate of 90% or more (almost completely withered)) | 5 (Herbicidal rate of 90% or more (almost completely withered)) | 4 (Herbicidal rate of 70% or more and less than 90%) | 3 (Herbicidal rate of 40% or more and less than 70%) | 5 (Herbicidal rate of 90% or more (almost completely withered)) | 4 (Herbicidal rate of 70% or more and less than 90%) | 
